Laboratory results: PMC9098913, “In vitro reconstitution of Escherichia coli divisome activation” (Nature Communications, 2022)
Read-outs that look alike come from different tables or passages of the source.

B1: FtsA R286W (protein)
chain: MIKATDRKLVVGLEIGTAKVAALVGEVLPDGMVNIIGVGSCPSRGMDKGGVNDLESVVKCVQRAIDQAELMADCQISSVYLALSGKHISCQNEIGMVPISEEEVTQEDVENVVHTAKSVRVRDEHRVLHVIPQEYAIDYQEGIKNPVGLSGVRMQAKVHLITCHNDMAKNIVKAVERCGLKVDQLIFAGLASSYSVLTEDERELGVCVVDIGGGTMDIAVYTGGALRHTKVIPYAGNVVTSDIAYAFGTPPSDAEAIKVRHGCALGSIVGKDESVEVPSVGGRPPWSLQRQTLAEVIEPRYTELLNLVNEEILQLQEKLRQQGVKHHLAAGIVLTGGAAQIEGLAACAQRVFHTQVRIGAPLNITGLTDYAQEPYYSTAVGLLHYGKESHLNGEAEVEKRVTASVGSWIKRLNSWLRKEF
modifications: Cy3 or Cy5 at the N-terminus in the labelled form (labelled CLEPTGG peptide conjugated to the 5xGly tag by sortagging); unlabelled protein also used; left off: TwinStrep-SUMO, N-terminal, cleaved | 5x

System: FtsZ
Conditions: for PCCdiff FtsA/FtsZ: 1.25 µM FtsZ, mean ± s.d.
[1] = 0.1µM FtsAs, replicate column 1
[2] = 0.1µM FtsAs, replicate column 2
[3] = 0.1µM FtsAs, replicate column 3
[4] = 0.2µM FtsAs, replicate column 1
[5] = 0.2µM FtsAs, replicate column 2
[6] = 0.2µM FtsAs, replicate column 3
[7] = 0.2µM FtsAs, replicate column 4
[8] = 0.2µM FtsAs, replicate column 5
[9] = 0.4 µM FtsA, p-value 1.82 × 10^−4
[10] = 0.4µM FtsAs, replicate column 1
[11] = 0.4µM FtsAs, replicate column 2
[12] = 0.4µM FtsAs, replicate column 3
[13] = 0.8µM FtsAs, replicate column 1
[14] = 0.8µM FtsAs, replicate column 2
[15] = 0.8µM FtsAs, replicate column 3
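Note: pearson correlation of FtsA and FtsZ channels in dual-colour TIRF movies after subtracting consecutive frames to isolate growing filament ends, one frame per 2 s, ATP and GTP present.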

Description: For this aim, we prepared differential time lapse movies[24], where we subtract the intensities of consecutive frames to selectively visualize the growing ends of filament bundles (Fig. 1d). We then calculated the Pearson correlation coefficient between the two channels of the differential movies (PCCdiff), which quantifies the covariation of the fluorescence signals for FtsA and FtsZ at the growing end of a filament bundle with a time resolution of the acquisition rate[4],[23],[24].
Additionally, the reaction chamber contained 4 mM ATP and 4 mM GTP, as well as a scavenging system to minimize photobleaching effects: 30 mM d-glucose, 0.050 mg ml^−1 Glucose Oxidase, 0.016 mg ml^−1 Catalase, 1 mM DTT and 1 mM Trolox. Prior addition of all components a corresponding buffer volume was removed from the chamber to obtain a total reaction volume of 100 µl. The dynamic protein pattern was monitored by time-lapse TIRF microscopy at one frame per 2 s and 50 ms exposure time.
Treadmilling dynamics, were quantified using an automated image analysis protocol previously developed by our group[24]. To visualize colocalization of the co-treadmilling FtsZ & FtsA filaments, we used dual-colour videos obtained at an acquisition rate of one frame per 2 s. The two channels were aligned using FIJI’s 3TP align plugin. Both channels were then subjected to the image subtraction protocol and colocalization was measured as described above.

Molecule	PCC FtsA/FtsZ, mean of experiment (head 'Fig.1e_PCC'; n and values fit Fig. 1f PCCdiff) [1]	PCC FtsA/FtsZ, mean of experiment (head 'Fig.1e_PCC'; n and values fit Fig. 1f PCCdiff) [2]	PCC FtsA/FtsZ, mean of experiment (head 'Fig.1e_PCC'; n and values fit Fig. 1f PCCdiff) [3]	PCC FtsA/FtsZ, mean of experiment (head 'Fig.1e_PCC'; n and values fit Fig. 1f PCCdiff) [4]	PCC FtsA/FtsZ, mean of experiment (head 'Fig.1e_PCC'; n and values fit Fig. 1f PCCdiff) [5]	PCC FtsA/FtsZ, mean of experiment (head 'Fig.1e_PCC'; n and values fit Fig. 1f PCCdiff) [6]	PCC FtsA/FtsZ, mean of experiment (head 'Fig.1e_PCC'; n and values fit Fig. 1f PCCdiff) [7]	PCC FtsA/FtsZ, mean of experiment (head 'Fig.1e_PCC'; n and values fit Fig. 1f PCCdiff) [8]	PCCdiff FtsA/FtsZ [9]	PCC FtsA/FtsZ, mean of experiment (head 'Fig.1e_PCC'; n and values fit Fig. 1f PCCdiff) [10]	PCC FtsA/FtsZ, mean of experiment (head 'Fig.1e_PCC'; n and values fit Fig. 1f PCCdiff) [11]	PCC FtsA/FtsZ, mean of experiment (head 'Fig.1e_PCC'; n and values fit Fig. 1f PCCdiff) [12]	PCC FtsA/FtsZ, mean of experiment (head 'Fig.1e_PCC'; n and values fit Fig. 1f PCCdiff) [13]	PCC FtsA/FtsZ, mean of experiment (head 'Fig.1e_PCC'; n and values fit Fig. 1f PCCdiff) [14]	PCC FtsA/FtsZ, mean of experiment (head 'Fig.1e_PCC'; n and values fit Fig. 1f PCCdiff) [15]	also measured
FtsA WT: wild-type E. coli actin-homologue FtsA, membrane anchor of FtsZ	0.69	0.76	0.71	0.62	0.58	0.67	0.71	0.74	0.18 ± 0.04	0.18	0.12	0.23	0.10	0.12	0.05	PCC FtsA/FtsZ, mean of experiment (head 'Fig.1e_PCC'; n and values fit Fig. 1f PCCdiff) (0.1µM FtsAs, replicate column 4): 0.71; PCC FtsA/FtsZ, mean of experiment (head 'Fig.1e_PCC'; n and values fit Fig. 1f PCCdiff) (0.1µM FtsAs, replicate column 5): 0.86; PCC FtsA/FtsZ, mean of experiment (head 'Fig.1e_PCC'; n and values fit Fig. 1f PCCdiff) (0.1µM FtsAs, replicate column 6): 0.67; PCC FtsA/FtsZ, mean of experiment (head 'Fig.1e_PCC'; n and values fit Fig. 1f PCCdiff) (0.2µM FtsAs, replicate column 6): 0.57
B1	0.68	0.67	0.48	0.74	0.79	0.75	0.76	0.68	0.76 ± 0.04	0.72	0.78	0.82	0.79	0.82	0.76	PCC FtsA/FtsZ, mean of experiment (head 'Fig.1e_PCC'; n and values fit Fig. 1f PCCdiff) (0.4µM FtsAs, replicate column 4): 0.72; PCCdiff FtsA/FtsZ (0.8 µM FtsA R286W): 0.76 ± 0.05; PCC FtsA/FtsZ, mean of experiment (head 'Fig.1e_PCC'; n and values fit Fig. 1f PCCdiff) (0.8µM FtsAs, replicate column 4): 0.69
